No end group written: not given here.
Tests used:
[1] = system: JNK on mitochondria of HeLa cells; conditions: N-acetylcysteine; earlier data, ref "Recent data from our lab"; cited from earlier work
[2] = molecular target: T1, JNK3α1 (Homo sapiens, UniProt P53779)
[3] = molecular target: JNK1α1 (active, recombinant) (human) (UniProt P45983)
[4] = system: JNK on mitochondria of HeLa cells; type: cell-based
[5] = system: c-jun phosphorylation in HeLa cells; test: c-jun phosphorylation in anisomycin-treated HeLa cells, Western blot; type: cell-based; conditions: 25µM anisomycin, 0-120 min
[6] = system: HeLa cells; test: Mitochondrial membrane potential, JC-1; type: cell-based
[7] = system: JNK phosphorylation in HeLa cells; test: JNK phosphorylation in anisomycin-treated HeLa cells, Western blot; type: cell-based; conditions: 25µM anisomycin
[8] = system: HeLa cells; conditions: 25µM anisomycin, 4 hours
[9] = molecular target: T1, JNK3α1; test: Fluorescence polarization assay for peptide binding
[10] = molecular target: T1, JNK3α1; test: Kinase-Glo phosphorylation assay, JNK3α1; type: biochemical; conditions: 4-parameter nonlinear regression, 30°C, 60 min
[11] = system: recombinant JNK1α1 / mitochondria of JNK-null fibroblasts; design: species or system murine; conditions: TI-JIP 1µM, Tat-SabKIM1 10µM
[12] = system: HeLa cells; test: Cytochrome c release, ELISA; type: cell-based; conditions: 25µM anisomycin 4 hours; Tat-SabKIM1 10µM, TI-JIP 1µM, siRNA 50nM
[13] = molecular target: JNK; conditions: cited from earlier work

Compound: CC(=O)N[C@@H](CS)C(=O)O [N-acetylcysteine]
- JNK translocation to the mitochondria [1]: inhibits JNK translocation to the mitochondria

Compound: Tat-TI-JIP (peptide)
- IC50 of inhibition of JNK3α1 phosphorylation of ATF2 (Kinase-Glo assay) [2]: 27 nM
- IC50 of inhibition of JNK3α1 phosphorylation of Sab protein (Kinase-Glo assay) [2]: 18 nM
- IC50 of inhibition of JNK3α1 phosphorylation of c-jun (Kinase-Glo assay) [2]: 38 nM
- IC50 of inhibition of JNK1α1 phosphorylation of c-jun (1–79) (Kinase-Glo assay) [3]: 34 nM

Compound: COc1ccc(C[C@H]2NC[C@H](O)[C@H]2OC(C)=O)cc1 [anisomycin]
- phospho-JNK on the mitochondria ([4]; 25µM anisomycin): as early as 5 minutes and peaked at 30 minutes
- Sab abundance on the mitochondria ([4]; 25µM anisomycin stress): did not have altered abundance
- JNK species found on the mitochondria ([4]; 25µM anisomycin, Western blot): only the 54kDa species was found on the mitochondria
- c-jun levels [5]: remained constant
- c-jun phosphorylation on serine 73 [5]: increased at 15–30 minutes, peaking at 45–60 min, then decreasing following 60 minutes
- increase in percent depolarized mitochondria ([6]; 25µM anisomycin, 45 min, vs DMSO-treated cells): 40–50%
- JNK phosphorylation ([7]; 0-120 min): increased JNK phosphorylation between 15 and 30 minutes, and then JNK phosphorylation decreased after 30 minutes
- total JNK abundance ([7]; two hour time course): unchanged
- cell death [8]: 50%
- decrease in viability ([8]; vs DMSO-treated cells): ~ 50%

Compound: YGRKKRRQRRRRPKRPTTLNLF-NH2 [Tat-TI-JIP]
- Kd [9]: 450 ± 60 nM
- affinity of JNK3α1 compared to the Sab peptide ([9]; greater affinity for JIP peptide vs Sab peptide, fluorescence polarization): 25 -fold
- IC50 ([10]; IC50 -vs-Sab, JNK3α1, substrate Sab): 18 ± 9 nM
- IC50 ([10]; IC50 -vs-c-jun, JNK3α1, substrate c-jun): 38 ± 12 nM
- levels of Sab on isolated mitochondria [11]: did not alter the levels of Sab
- Sab expression on mitochondria of HeLa cells with peptide ([4]; 25µM anisomycin 30 min, TI-JIP 1µM, Tat-SabKIM1 10µM): without impacting Sab expression
- mitochondrial membrane potential (MMP) dissipation ([6]; JC-1, 25µM anisomycin 45 min, Tat-SabKIM1 10µM, TI-JIP 1µM, siRNA 50nM): decreased the amount of mitochondria with dissipating MMP
- cytochrome c release from the mitochondria [12]: capable of reducing cytochrome c release
- Ki ([13]; read-out: Ki, inhibition of JNK activity versus ATF-2, ref [19], [20]): 25 nM
- inhibition of JNK catalytic activity with respect to substrate binding ([13]; ref [19]–[21]): potent inhibitor

Compound: AVVRPGSLDLR [Sab KIM1 motif]
- inhibition of JNK phosphorylation of c-jun / transcription factors ([13]; ref [15]): little, if any impact

Compound: Sab KIM1 peptide: Sab KIM1 motif examined earlier as an inhibitor of JNK mediated c-jun phosphorylation (GFESLSVPSPLDLSGPRVVAPPRRRQRRKKRG; not fully specified; retro-inverso configuration; C-terminal amide (-NH2))
- impact on c-jun phosphorylation ([13]; ref [18]): did not impact c-jun phosphorylation
